US10702504B2, “Degradation of tripartite motif-containing protein 24 (TRIM24) by conjugation of TRIM24 inhibitors with E3 ligase ligand and methods of use” (Dana-Farber Cancer Institute, Inc., priority 2016, dated 2020)

Key:
[1] = molecular target: PHD-bromodomain of TRIM24 (Homo sapiens (Human), UniProt O15164); experiment: TRIM24 binding alpha assay; conditions: Alpha Assay binding to TRIM24; compounds 50 μM to 0.002 μM
Protocol: The alpha TRIM24 binding assay is used to assess the binding of the compounds of the application. Compounds are added at various concentrations as well as a vehicle control. Compounds that bind to TRIM24 compete away the interaction between the PHD-bromodomain of TRIM24 bound to the donor bead, and the H3K23ac histone peptide bound to the acceptor bead, which causes a decrease in signal. IC50 values are calculated.
The alpha assay was used to assess the binding of the compounds of the application to TRIM24 at various concentrations. All compounds were added at concentrations from 50 μM to 0.002 μM. Compounds that bind to TRIM24 compete with the PHD-bromodomain of TRIM24 in interacting with the donor bead, and the H3K23ac histone peptide bound to the acceptor bead, which causes a decrease in signal. IC50 values were calculated by using Graphpad PRISM's log(inhibitor) vs. response—variable slope (four parameters).

TRIM24 = TRIM24 (Homo sapiens (Human), UniProt O15164); experiment: Destabilization of TRIM24 over time in MCF7 cells (immunoblot); format: cell-based
TRIM24, sequence (O15164 whole entry): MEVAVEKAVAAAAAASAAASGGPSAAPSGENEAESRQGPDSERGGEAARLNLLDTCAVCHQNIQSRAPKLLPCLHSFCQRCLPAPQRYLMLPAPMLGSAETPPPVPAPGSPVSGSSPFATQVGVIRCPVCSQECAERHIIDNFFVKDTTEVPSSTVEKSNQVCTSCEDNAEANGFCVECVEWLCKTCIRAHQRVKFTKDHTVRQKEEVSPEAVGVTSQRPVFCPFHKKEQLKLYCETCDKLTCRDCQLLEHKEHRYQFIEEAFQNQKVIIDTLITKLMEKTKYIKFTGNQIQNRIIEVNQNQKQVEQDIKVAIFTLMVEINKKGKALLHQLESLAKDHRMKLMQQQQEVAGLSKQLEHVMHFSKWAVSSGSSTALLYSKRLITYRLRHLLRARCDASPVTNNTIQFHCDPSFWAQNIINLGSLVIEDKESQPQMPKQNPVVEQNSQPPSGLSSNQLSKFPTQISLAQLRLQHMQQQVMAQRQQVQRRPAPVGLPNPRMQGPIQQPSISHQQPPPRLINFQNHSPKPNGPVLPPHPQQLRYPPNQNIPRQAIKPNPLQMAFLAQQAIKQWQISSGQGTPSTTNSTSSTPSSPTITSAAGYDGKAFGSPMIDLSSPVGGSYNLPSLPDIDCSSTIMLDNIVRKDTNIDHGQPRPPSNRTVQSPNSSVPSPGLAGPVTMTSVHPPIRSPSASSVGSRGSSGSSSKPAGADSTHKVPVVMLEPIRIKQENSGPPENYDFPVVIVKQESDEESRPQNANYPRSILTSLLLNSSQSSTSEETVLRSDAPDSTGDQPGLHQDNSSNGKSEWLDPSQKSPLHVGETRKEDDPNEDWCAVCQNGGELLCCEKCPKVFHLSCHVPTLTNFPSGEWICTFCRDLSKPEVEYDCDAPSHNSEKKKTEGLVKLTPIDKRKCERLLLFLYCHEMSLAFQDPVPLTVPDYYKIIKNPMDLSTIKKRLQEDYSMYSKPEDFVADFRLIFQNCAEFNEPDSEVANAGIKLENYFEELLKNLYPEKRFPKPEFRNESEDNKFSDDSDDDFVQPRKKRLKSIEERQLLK
Protocol: Wild-type or cereblon null 293T cells, or MCF7 cells, were treated with compounds of the application. The cells were treated for 4 hours or 18 hours with representative compounds at a final concentration of 10 μM, 5 μM, or 0.5 μM, or with a vehicle control. Cells were harvested and lysed using RIPA buffer with Halt protease inhibitors and 0.1% benzonase on ice for 15 minutes. The amount of total protein was quantified using the BCA assay. Primary antibodies used were TRIM24 (Cell Signaling Technology) as well as actin (Santa Cruz). Blots were imaged using secondary antibodies (LI-COR) on the OdysseyCLxImager. Band intensities were quantified using the LI-COR software. TRIM24 signal was normalized to the actin loading control. The signal intensity of TRIM24 from cells treated with DMSO was set to 1, and all other treatment conditions were normalized to the DMSO condition per immunoblot to determine the level of TRIM24, which was expressed as a ratio to the TRIM24 level in the DMSO treated cells.
In addition. MCF7 cells were treated for 24, 48, and 72 hours with representative compounds of the application at 5 μM.

PHD-bromodomain of TRIM24, sequence (O15164 824-1006): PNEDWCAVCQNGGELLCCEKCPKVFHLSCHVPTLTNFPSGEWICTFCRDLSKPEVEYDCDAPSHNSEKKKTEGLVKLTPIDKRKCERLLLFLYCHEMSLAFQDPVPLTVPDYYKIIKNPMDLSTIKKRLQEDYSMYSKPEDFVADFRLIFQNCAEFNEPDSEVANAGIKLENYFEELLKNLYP

| Structure (SMILES) | IC50 [1] [µM] | level of TRIM24 compared to vehicle (TRIM24; 5 μM, 24, 48 and 72 hours) | decrease in the level of TRIM24 over time (TRIM24; 5 μM, 24 h to 72 h) |
| --- | --- | --- | --- |
| CCCOc1cc(OCCCCN(C)C)cc(Oc2cc3c(cc2NS(=O)(=O)c2cccc(C(=O)NCCCOCCOCCOCCCNC(=O)COc4cccc5c4C(=O)N(C4CCC(=O)NC4=O)C5=O)c2)n(C)c(=O)n3C)c1 (stereo not shown) [I-A12, 3-(N-(6-(3-(4-(dimethylamino)butoxy)-5-propoxyphenoxy)-1,3-dimethyl-2-oxo-2,3-dihydro-1H-benzo[d]imidazol-5-yl)sulfamoyl)-N-(1-((2-(2,6-dioxopiperidin-3-yl)-1,3-dioxoisoindolin-4-yl)oxy)-2-oxo-7,10,13-trioxa-3-azahexadecan-16-yl)benzamide] | < 0.05 |  |  |
| CCCOc1cc(OCCCCN(C)C)cc(Oc2cc3c(cc2NS(=O)(=O)c2cccc(C(=O)NCCCCCCCCNC(=O)COc4cccc5c4C(=O)N(C4CCC(=O)NC4=O)C5=O)c2)n(C)c(=O)n3C)c1 (stereo not shown) [I-A11, 3-(N-(6-(3-(4-(dimethylamino)butoxy)-5-propoxyphenoxy)-1,3-dimethyl-2-oxo-2,3-dihydro-1H-benzo[d]imidazol-5-yl)sulfamoyl)-N-(8-(1-((2-(2,6-dioxopiperidin-3-yl)-1,3-dioxoisoindolin-4-yl)oxy)acetamido)octyl)benzamide] | < 0.05 |  |  |

Continued, values first:

| IC50 [1] [µM] | level of TRIM24 compared to vehicle (TRIM24; 5 μM, 24, 48 and 72 hours) | decrease in the level of TRIM24 over time (TRIM24; 5 μM, 24 h to 72 h) | Structure (SMILES) |
| --- | --- | --- | --- |
| 0.05 to 0.1 | significantly reduced | continued over a 24 h to 72 h period | CCCOc1cccc(Oc2cc3c(cc2NS(=O)(=O)c2cccc(C(=O)NCCOCCOCCOCC(=O)N[C@H](C(=O)N4C[C@H](O)C[C@H]4C(=O)NCc4ccc(-c5scnc5C)cc4)C(C)(C)C)c2)n(C)c(=O)n3C)c1 [I-B3, (2S,4R)-1-((S)-15-(tert-butyl)-1-(3-(N-(1,3-dimethyl-2-oxo-6-(3-propoxyphenoxy)-2,3-dihydro-1H-benzo[d]imidazol-5-yl)sulfamoyl)phenyl)-1,13-dioxo-5,8,11-trioxa-2,14-diazahexadecan-16-oyl)-4-hydroxy-N-(4-(4-methylthiazol-5-yl)benzyl)pyrrolidine-2-carboxamide] |
| 0.1 to 0.5 |  |  | CCCOc1cccc(Oc2cc3c(cc2NS(=O)(=O)c2cccc(C(=O)NCCOCCOCCOc4cc(-c5scnc5C)ccc4CNC(=O)[C@@H]4C[C@@H](O)CN4C(=O)[C@H](C(C)C)N4Cc5ccccc5C4=O)c2)n(C)c(=O)n3C)c1 [I-B1, (2S,4R)—N-(2-(2-(2-(2-(3-(N-(1,3-dimethyl-2-oxo-6-(3-propoxyphenoxy)-2,3-dihydro-1H-benzo[d]imidazol-5-yl)sulfamoyl)benzamido)ethoxy)ethoxy)ethoxy)-4-(4-methylthiazol-5-yl)benzyl)-4-hydroxy-1-((S)-3-methyl-2-(1-oxoisoindolin-2-yl)butanoyl)pyrrolidine-2-carboxamide] |
| > 0.5 |  |  | COc1ccc(S(=O)(=O)Nc2cc3c(cc2Oc2ccc(OCC(=O)NCCCOCCOCCOCCCNC(=O)COc4cccc5c4C(=O)N(C4CCC(=O)NC4=O)C5=O)cc2)n(C)c(=O)n3C)cc1OC (stereo not shown) [I-A3, 2-(4-((6-((3,4-dimethoxyphenyl)sulfonamido)-1,3-dimethyl-2-oxo-2,3-dihydro-1H-benzo[d]imidazol-5-yl)oxy)phenoxy)-N-(1-((2-(2,6-dioxopiperidin-3-yl)-1,3-dioxoisoindolin-4-yl)oxy)-2-oxo-7,10,13-trioxa-3-azahexadecan-16-yl)acetamide] |
